Measured values taken from PubChem BioAssay (NCI).
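Compound exposure: 48 hours, 5 concentrations, 96-well plates. GI50 marks 50% less growth. The concentration for full growth arrest is given as TGI.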

Legend:
Assay in all cases: NCI tumour cell line growth inhibition, 48 h
[1] = test system: SK-MEL-28 melanoma
[2] = test system: SR leukemia
[3] = test system: COLO 205 colon
[4] = test system: UACC-257 melanoma
[5] = test system: NCI-H226 lung
[6] = test system: MDA-MB-231 breast
[7] = test system: ACHN renal
[8] = test system: UACC-62 melanoma
[9] = test system: SK-MEL-2 melanoma
[10] = test system: NCI-H522 lung

| Structure (SMILES) | GI50 [1] [µM] | TGI [1] [µM] | GI50 [2] [µM] | TGI [2] [µM] | GI50 [3] [µM] | TGI [3] [µM] | GI50 [4] [µM] | TGI [4] [µM] | GI50 [5] [µM] | TGI [5] [µM] | GI50 [6] [µM] | TGI [6] [µM] | GI50 [7] [µM] | TGI [7] [µM] | GI50 [8] [µM] | TGI [8] [µM] | GI50 [9] [µM] | TGI [9] [µM] | GI50 [10] [µM] | TGI [10] [µM] |
| --- | --- | --- | --- | --- | --- | --- | --- | --- | --- | --- | --- | --- | --- | --- | --- | --- | --- | --- | --- | --- |
| Cc1cccc(Cc2cnc(NC(=O)/C=C/c3ccco3)s2)c1 | > 100 | > 100 | 0.0342 | > 100 | 0.0438 | 1.23 | > 100 | > 100 | 0.797 | > 23.1 | 0.0771 | > 73.1 | 0.0645 | > 100 | 0.0542 | > 100 | 0.0737 | > 100 |  |  |
| CCOC(=O)CCC(NC(=O)c1ccc(Nc2nc3cc(N)cc(N)c3nc2-c2ccccc2)cc1)C(=O)OCC (stereo not given) | 5.76 | 13.3 |  |  | > 29.7 | > 100 | 6.04 | 13.7 | > 51.6 | > 74.1 | 16.5 | > 53.2 | > 35.9 | > 68.6 | 12.6 | > 38.2 | 16.5 | > 86 | 27.9 | > 100 |
| Nc1ccc(C(=O)N/C(=C\c2ccc3c(c2)OCO3)c2nc3ccc4c(c3[nH]2)C(=O)c2ccccc2C4=O)cc1 |  | 78.5 |  |  |  | > 100 |  | > 100 |  |  |  |  |  | 64.9 |  | > 100 |  | 75.4 |  | 71.9 |
| CCN(CC)Cc1cc(Nc2c3ccc(Cl)cc3nc3c(C)cccc23)ccc1O | 1.78 | 3.22 |  |  | 1.23 | 2.6 | 1.99 | 3.62 | 1.71 | 3.51 | 1.83 | 3.81 | 1.04 | 2.24 | 1.96 | 3.64 | 1.94 | 3.73 | 0.585 | 1.92 |
| O=C1NC(=Nc2ccccc2Cl)SC1C(=O)Nc1ccc([N+](=O)[O-])cc1[N+](=O)[O-] (stereo not given) |  | > 100 |  | > 100 |  | > 100 |  | > 100 |  | > 100 |  |  |  | > 100 |  | > 100 |  | > 100 |  | > 100 |
| COc1cc2ccc(C(=O)O)cc2cc1OC |  | > 100 |  |  |  | > 100 |  | > 100 |  | > 100 |  |  |  | > 100 |  | > 100 |  | > 100 |  | > 100 |
| CC(C)C(NCc1c2ccccc2nc2ccccc12)C(=O)O (stereo not given) |  | > 100 |  | > 100 |  | > 100 |  | > 100 |  | > 100 |  |  |  | > 100 |  |  |  | > 100 |  | 91.2 |
| O=C1/C(=C/c2ccccc2)CN(C(=O)Oc2ccccc2)C/C1=C\c1ccccc1 |  | > 100 |  |  |  | > 100 |  | > 100 |  |  |  |  |  | > 100 |  | > 100 |  | 65.5 |  | > 100 |
| CCCN(CCC)c1c([N+](=O)[O-])cc(C(N)=O)cc1[N+](=O)[O-] |  | > 100 |  |  |  | > 100 |  | > 100 |  | > 100 |  |  |  | > 100 |  |  |  | > 100 |  | 67.3 |
| CCC1C(=O)OCc2c1cc1n(c2=O)Cc2ccccc2-1 (stereo not given) |  | > 100 |  | > 100 |  |  |  | > 100 |  | > 100 |  |  |  | > 100 |  | > 100 |  | > 100 |  |  |
| COc1ccccc1NC(=O)NS(=O)(=O)c1ccccc1 |  | > 100 |  |  |  | > 100 |  | > 100 |  | > 100 |  |  |  | > 100 |  |  |  | > 100 |  | > 100 |
| CCN1CCN(c2nc(NNC(=O)c3cccc(OC)c3)nc(N3CCN(C(c4ccccc4)c4ccccc4)CC3)n2)CC1 | 1.8 | 3.34 | 0.926 | 3.81 | 2.22 | 5.55 | 2.18 | 4.99 | 1.69 | 3.76 | 1.87 | 3.58 | 1.93 | 3.77 | 1.84 | 3.71 | 2.02 | 4.05 |  |  |
| c1cc[c]([Sn]([O]c2cccc3cccnc23)([c]2ccccc2)[c]2ccccc2)cc1 | 0.0116 | 0.0299 |  |  | 0.0161 | 0.0302 | 0.0334 | 0.117 | 0.0454 | 0.153 |  |  | 0.0168 | 0.0332 | < 0.01 | 0.0188 | 0.0217 | 0.059 | < 0.01 |  |
| CC(C)=CCCC1(C)C=Cc2c(ccc3c2[nH]c2cc(O)c(C)cc23)O1 (stereo not given) |  | > 2.5 | 5.55 | 14.7 |  | > 2.5 |  |  | 7.02 | 14.6 |  |  | 6.83 | 20.2 | 9.4 | > 25 | 6.47 | > 25 | 3.87 | 7.2 |
| COC(=O)C1=C(c2cc(OC)c(OC)c(OC)c2)OC(c2cc(OC)c(OC)c(OC)c2)C1 (stereo not given) |  | > 100 |  | 60 |  | 33 |  | 51.5 |  | 75.4 |  |  |  | 65.4 |  | 27.5 |  |  |  |  |
| COc1ccc(C(=O)C(CN(C)C)c2ccccc2)cc1 (stereo not given) | 1.83 | 3.38 |  |  | 2.26 | 4.21 | 2.39 | 10.7 | 2.67 | 8.59 | 5.41 | 17.4 | 2.11 | 4.95 | 2.81 | 8.22 | 3.09 | 7.97 |  |  |
| NC(=O)COc1ccc(Br)cc1Br |  | > 100 |  | > 100 |  | > 100 |  | > 100 |  | > 100 |  |  |  | > 100 |  |  |  | > 100 |  | > 100 |
| N#CC(N)(C(=O)C(=O)NCCCNC(=O)C(=O)C(N)(C#N)c1ccc(Cl)cc1)c1ccc(Cl)cc1 (stereo not given) |  | > 100 |  | > 100 |  | > 100 |  | > 100 |  | > 100 |  |  |  | > 100 |  | > 100 |  | > 100 |  | > 100 |
| O=C(O)c1ccccc1/C=C1/Nc2ccccc2C1=O |  | > 100 |  | > 100 |  | > 100 |  | > 100 |  | > 100 |  | > 100 |  | > 100 |  | > 100 |  | > 100 |  |  |
